Measured values: patent publication US20220088011A1, “THERAPEUTIC AGENT FOR A TUMOR COMPRISING AN IDO INHIBITOR ADMINISTERED IN COMBINATION WITH AN ANTIBODY” (KYOWA KIRIN CO., LTD., priority 2015, published 2022)

B1: mogamulizumab: humanized anti CCR4 monoclonal antibody (antibody, chains of the INN, looked up, V domains shown)
VH: EVQLVESGGDLVQPGRSLRLSCAASGFIFSNYGMSWVRQAPGKGLEWVATISSASTYSYYPDSVKGRFTISRDNAKNSLYLQMNSLRVEDTALYYCGRHSDGNFAFGYWGQGTLVTVSS
VL: DVLMTQSPLSLPVTPGEPASISCRSSRNIVHINGDTYLEWYLQKPGQSPQLLIYKVSNRFSGVPDRFSGSGSGTDFTLKISRVEAEDVGVYYCFQGSLLPWTFGQGTKVEIK

Key:
A431 cells = assay: ADCC of cetuximab against A431 cells by human PBMCs pre-incubated in conditioned medium; format: cell-based; settings: human PBMCs pre-incubated 7 days in conditioned medium of KATO-III + IFN-γ + 100 nmol/L compound
Protocol: (§1) KATO-III cells (1.25×10^6 cells) were treated with 25 ng/mL recombinant human IFN-γ. […] Three days later, cells and supernatants were separated by centrifugation. The supernatants were used as conditioned medium. The conditioned medium was used for incubation of human PBMCs or NK cells (section 2.4.2), and measurement of Kyn and Trp (section 2.4.4).
(§2) NK cells were isolated from human PBMCs using NK isolation kit (Miltenyi Biotec, Cat. No. 130-092-657) and autoMACS instrument. Human PBMCs or NK cells were cultured in the conditioned medium (section 2.4.1) in a CO2 incubator. After 7 days, cells were harvested and counted, and used as effector cells. PBMCs and NK cells used as effector cells were suspended in the assay medium (RPMI1640 containing 10 vol % heat-inactivated fetal bovine serum and 1 vol % Penicillin-Streptomycin) to 5×10^6 cells/mL (PBMCs) or 4×10^5 cells/mL (NK cells). TL-Om1 cells, HH cells, SK-BR-3 cells, Raji cells or A431 cells (1×10^6 cells/each cell line) were labeled with 1.85 MBq of Na2^51CrO4 (PerkinElmer) for over 1 hour at 37° C. in a CO2 incubator. The cells were washed 3 times with assay medium. The radiolabeled cells used as target cells were suspended in 5 mL of the assay medium to 2×10^5 cells/mL. […]

TL-Om1 cells [1] = assay: ADCC of mogamulizumab against TL-Om1 cells by purified human NK cells pre-incubated in conditioned medium; format: cell-based
Protocol: as §1
(§3) NK cells were isolated from human PBMCs using NK isolation kit (Miltenyi Biotec, Cat. No. 130-092-657) and autoMACS instrument. Human PBMCs or NK cells were cultured in the conditioned medium (section 2.4.1) in a CO2 incubator. After 7 days, cells were harvested and counted, and used as effector cells. […] The radioactivity was counted with a microplate scintillation counter (TopCount NXT, PerkinElmer).
(§4) The percentage of cytotoxicity was calculated according to the following formula: […]
(§5) E is the experimental released radioactivity (cpm), S is the mean of spontaneous released radioactivity (cpm) by adding the assay medium instead of effector cells and antibody, and M is the mean of maximum released radioactivity (cpm) by adding 10 vol % Triton™ X-100 (Sigma-Aldrich, Cat. No. T9284-100ML) instead of effector cells and antibody. […]

SK-BR-3 cells = assay: ADCC of trastuzumab against SK-BR-3 cells by human PBMCs pre-incubated in conditioned medium; format: cell-based; settings: human PBMCs pre-incubated 7 days in conditioned medium of KATO-III + IFN-γ + 100 nmol/L compound
Protocol: as §1, §2

TL-Om1 cells [2] = assay: ADCC of mogamulizumab against TL-Om1 cells by human PBMCs pre-incubated in medium containing the compound itself; format: cell-based; settings: human PBMCs pre-incubated in medium containing 100 nmol/L compound for 7 days
Protocol: NK cells were isolated from human PBMCs using NK isolation kit (Miltenyi Biotec, Cat. No. 130-092-657) and autoMACS instrument. Human PBMCs or NK cells were cultured in the conditioned medium (section 2.4.1) in a CO2 incubator. After 7 days, cells were harvested and counted, and used as effector cells. PBMCs and NK cells used as effector cells were suspended in the assay medium (RPMI1640 containing 10 vol % heat-inactivated fetal bovine serum and 1 vol % Penicillin-Streptomycin) to 5×10^6 cells/mL (PBMCs) or 4×10^5 cells/mL (NK cells). TL-Om1 cells, HH cells, SK-BR-3 cells, Raji cells or A431 cells (1×10^6 cells/each cell line) were labeled with 1.85 MBq of Na2^51CrO4 (PerkinElmer) for over 1 hour at 37° C. in a CO2 incubator. The cells were washed 3 times with assay medium. The radiolabeled cells used as target cells were suspended in 5 mL of the assay medium to 2×10^5 cells/mL. […] Fifty μL of the target cells (1×10^4 cells) were plated into 96-well round bottomed culture plates and mixed with 50 μL of antibody dilutions prepared as described above and 50 μL of the effector cells (2.5×10^5 cells). The culture plates were briefly centrifuged at 4° C. and incubated at 37° C. in a CO2 incubator for about 4 hours. […] The radioactivity was counted with a microplate scintillation counter (TopCount NXT, PerkinElmer).

Raji cells = assay: ADCC of rituximab against Raji cells by human PBMCs pre-incubated in conditioned medium; format: cell-based; settings: human PBMCs pre-incubated 7 days in conditioned medium of KATO-III + IFN-γ + 100 nmol/L compound
Protocol: as §1, §2

TL-Om1 cells [3] = assay: ADCC of mogamulizumab against TL-Om1 cells by human PBMCs pre-incubated in conditioned medium; format: cell-based
Protocol: as §1, §3, §4, §5

SKOV3 cells = assay: Cytotoxicity of PBMCs against SKOV3 cells with or without Antibody C1 (51Cr release); format: cell-based, human; settings: PBMCs pre-incubated 7 days in conditioned medium of SKOV3 + 50 ng/mL IFNγ + 100 nmol/L compound, vs conditioned medium DMSO
Protocol: The supernatants of each culture were used as the conditioned medium for pre-incubation of PBMCs.
SKOV3 cells were detached from culture flasks by TrypLE Express (GIBCO). The live cells were adjusted to 1.0×10^6 cells by the ADCC assay medium [RPMI1640 without phenol red (GIBCO) with 10 vol % of dialyzed and heat-inactivated FCS(GIBCO)]. Then, the cells were labeled with approx. 3.7 MBq of Na2^51CrO4 (PerkinElmer) for over 1 hour at 37° C. in a CO2 incubator. The cells were washed three times, and adjusted to 2.0×10^5 cells/mL (1×10^4 cells/50 μL) as the target cells using the ADCC assay medium.
Human PBMCs were cultured in 25 mL of the conditioned medium for 7 days. […]
The cytotoxicity was quantified by measurement of radioactivity in the supernatant of each assay well. […]
Total, T spo, M, or Assay sample was defined and prepared as follows. • Total: Target cell total radioactivity control. This sample was prepared by mixing 50 μL of target cell, 15 μL of detergent (10×Lysis Solution, Promega), and 85 μL of the ADCC assay medium. • T spo: Target cell spontaneous radioactivity control. […]
Each sample was prepared in triplicate. […] The radioactivity (cpm) was counted with a microplate scintillation counter (TopCount NXT, PerkinElmer).
The cytotoxicity (%) was calculated by the following equations using the cpm of each well. […]

HH cells = assay: ADCC of mogamulizumab against HH cells by human PBMCs pre-incubated in conditioned medium; format: cell-based
Protocol: as §1, §3, §4, §5

TL-Om1 cells [4] = assay: ADCC of mogamulizumab against TL-Om1 cells by human PBMCs pre-incubated in conditioned medium of shRNA KATO-III cells; format: cell-based; settings: PBMCs pre-incubated in conditioned medium 3 (parent + IFN-γ) or 4 (NegaCTRL shRNA + IFN-γ) compared with conditioned medium 1 or 2
Protocol: Parental KATO-III or KATO-III cells stably expressing IDO1 shRNA or NegaCTRL shRNA (1.25×10^6 cells) were treated with 25 ng/mL recombinant human IFN-γ. Cells were incubated in a CO2 incubator. Three days later, cells and supernatants were separated by centrifugation. The supernatants were used as conditioned medium. The conditioned medium was used for incubation of human PBMCs (Section 7.4.5), and measurement of Kyn and Trp (Section 7.4.7).
Human PBMCs were cultured in each conditioned medium (Section 7.4.4) in a CO2 incubator. After 7 days, cells were harvested and counted, and used as effector cells. PBMCs used as effector cells were suspended in the assay medium (RPMI1640 containing 10 vol % heat-inactivated fetal bovine serum and 1 vol % Penicillin-Streptomycin) to 5×10^6 cells/mL. […] The radioactivity was counted with a microplate scintillation counter (TopCount NXT, PerkinElmer).
as §4, §5

Row | Molecule | effect on the attenuation of ADCC of cetuximab against A431 cells (A431 cells) | effect on the attenuation of ADCC of mogamulizumab by NK cells (TL-Om1 cells [1]; purified human NK cells pre-incubated in conditioned medium of KATO-III + IFN-γ + 100 nmol/L compound, TL-Om1 target cells) | effect on the attenuation of ADCC of trastuzumab against SK-BR-3 cells (SK-BR-3 cells) | effect of the compound itself on ADCC of mogamulizumab (TL-Om1 cells [2]) | effect on the attenuation of ADCC of rituximab against Raji cells (Raji cells) | effect on the attenuation of ADCC of mogamulizumab against TL-Om1 cells (TL-Om1 cells [3]; human PBMCs (donor 1, donor 2) pre-incubated 7 days in conditioned medium of KATO-III + IFN-γ + 100 nmol/L compound) | cytotoxicity without Antibody C1 (natural killing activity) of PBMCs against SKOV3 cells (SKOV3 cells) | cytotoxicity of PBMCs against SKOV3 cells in the presence of Antibody C1 (SKOV3 cells; Antibody C1 0.033-333 ng/mL) | effect on the attenuation of ADCC of mogamulizumab against HH cells (HH cells; human PBMCs pre-incubated 7 days in conditioned medium of KATO-III + IFN-γ + 100 nmol/L compound) | ADCC by NK cells against TL-Om1 cells (TL-Om1 cells [1]; purified NK cells pre-incubated in conditioned medium 2 (KATO-III + IFN-γ)) | ADCC against TL-Om1 cells (TL-Om1 cells [3]; PBMCs (donor 1, donor 2) pre-incubated in conditioned medium 2 (KATO-III + IFN-γ) compared with conditioned medium 1) | ADCC against TL-Om1 cells (TL-Om1 cells [4]) | ADCC against HH cells (HH cells; PBMCs pre-incubated in conditioned medium 2 (KATO-III + IFN-γ))
1 | NS(=O)(=O)NCCNc1nonc1C(=NO)Nc1ccc(F)c(Br)c1 [Compound B1, 4-({2-[(aminosulfonyl)amino]ethyl}amino)-N-(3-bromo-4-fluorophenyl)-N′-hydroxy-1,2,5-oxadiazole-3-carboximidamide] | canceled the attenuation | canceled | canceled the attenuation | did not influence | canceled the attenuation | canceled the attenuation | higher | higher | canceled the attenuation | – | – | – | –
2 | B1 | – | – | – | – | – | – | – | – | – | attenuated | attenuated | attenuated | attenuated
